# Results published in patent US20100267561A1, “HERBICIDAL PYRIDAZINONE DERIVATIVES” (priority 2007, published 2010).
# What was measured:
# Assay type in all cases: in vivo
# [1] = tested on: barnyardgrass (Echinochloa crus-galli); experiment: Test A pre-/postemergence plant response
# In short: (§1)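 Scores reflect visual plant injury relative to untreated controls on a 0–100 scale, recorded approximately 10 days after simultaneous preemergence soil spraying and postemergence spraying of one- to two-leaf seedlings grown in loam–sand.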
# corn (Zea mays) = experiment: Test A pre-/postemergence plant response
# In short: as §1
# [2] = tested on: giant foxtail (Setaria faberi); experiment: Test A pre-/postemergence plant response
# In short: as §1
# [3] = tested on: large crabgrass (Digitaria sanguinalis); experiment: Test A pre-/postemergence plant response
# In short: as §1
# [4] = tested on: morningglory (Ipomoea coccinea); experiment: Test A pre-/postemergence plant response
# In short: as §1
# [5] = tested on: pigweed (Amaranthus retroflexus); experiment: Test A pre-/postemergence plant response
# In short: as §1
# [6] = tested on: velvetleaf (Abutilon theophrasti); experiment: Test A pre-/postemergence plant response
# In short: as §1
# [7] = tested on: wheat (Triticum aestivum); experiment: Test A pre-/postemergence plant response
# In short: as §1
# [8] = tested on: surinam grass (Brachiaria decumbens); experiment: Test B pre-/postemergence plant response
# In short: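 Seeds were sown and sprayed preemergence, while plants at 2 to 18 cm (1- to 4-leaf stage) got postemergence sprays. Compounds were formulated in a non-phytotoxic solvent mixture with surfactant. After 13 to 15 days in a greenhouse, injury was rated visually against untreated controls, 0 (no effect) to 100 (complete control).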
# [9] = tested on: canarygrass (Phalaris minor); experiment: Test B postemergence plant response; details: for Plant response rating, Canarygrass: Postemergence, scale 0 to 100
# In short: (§2)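 Following treatment of plants 2 to 18 cm high after emergence, pots were held under glass for 13 to 15 days; efficacy was then graded visually, 100 denoting complete control and a dash no test result.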
# [10] = tested on: chickweed (Stellaria media); experiment: Test B postemergence plant response; details: for Plant response rating, Chickweed: Postemergence
# In short: as §2
# [11] = tested on: windgrass (Apera spica-venti); experiment: Test B postemergence plant response; details: for Windgrass plant response rating: postemergence, 0-100 scale; for Plant response rating, Windgrass: Postemergence
# In short: as §2
# [12] = tested on: winter barley (Hordeum vulgare); experiment: Test B postemergence plant response; details: for Plant response rating, Barley: Postemergence, scale 0 to 100, 0 no effect, 100 complete control
# In short: as §2
# [13] = Postemergence, 31 g ai/ha, 0 to 100 scale (0 no effect, 100 complete control)
# [14] = Postemergence, 125 g ai/ha, 0 to 100 scale, 0 no effect, 100 complete control
# [15] = Preemergence, 31 g ai/ha, 0 to 100 scale, 0 is no effect, 100 is complete control
# [16] = Preemergence, 125 g ai/ha, 0 to 100 scale (0 no effect, 100 complete control)
# [17] = 8 g ai/ha, postemergence, 0-100 scale
# [18] = 62 g ai/ha, scale 0 to 100, 0 no effect, 100 complete control
smiles,measurement,setting,value
CCc1cc(-c2ccc(C(F)(F)F)cc2)nn1-c1c(O)cnn(CC)c1=O [Compound 67],"Plant response rating, Barnyardgrass",[1]; [13],100
same,"Plant response rating, Barnyardgrass",[1]; [14],100
same,"Plant response rating, Barnyardgrass",[1]; [15],0
same,"Plant response rating, Barnyardgrass",[1]; [16],100
same,"Plant response rating, Corn",corn (Zea mays); [13],90
same,"Plant response rating, Corn",corn (Zea mays); [14],100
same,"Plant response rating, Corn",corn (Zea mays); [15],20
same,"Plant response rating, Corn",corn (Zea mays); [16],80
same,"Plant response rating, Foxtail, Giant",[2]; [13],100
same,"Plant response rating, Foxtail, Giant",[2]; [14],100
same,"Plant response rating, Foxtail, Giant",[2]; [15],40
same,"Plant response rating, Foxtail, Giant",[2]; [16],100
same,"Plant response rating, Crabgrass, Large",[3]; [13],80
same,"Plant response rating, Crabgrass, Large",[3]; [14],100
same,"Plant response rating, Crabgrass, Large",[3]; [15],20
same,"Plant response rating, Crabgrass, Large",[3]; [16],90
same,"Plant response rating, Morningglory",[4]; [13],0
same,"Plant response rating, Morningglory",[4]; [14],0
same,"Plant response rating, Morningglory",[4]; [15],0
same,"Plant response rating, Morningglory",[4]; [16],0
same,"Plant response rating, Pigweed",[5]; [13],0
same,"Plant response rating, Pigweed",[5]; [14],0
same,"Plant response rating, Pigweed",[5]; [15],0
same,"Plant response rating, Pigweed",[5]; [16],0
same,"Plant response rating, Velvetleaf",[6]; [13],0
same,"Plant response rating, Velvetleaf",[6]; [14],0
same,"Plant response rating, Velvetleaf",[6]; [15],0
same,"Plant response rating, Velvetleaf",[6]; [16],0
same,"Plant response rating, Wheat",[7]; [13],90
same,"Plant response rating, Wheat",[7]; [14],100
same,"Plant response rating, Wheat",[7]; [15],20
same,"Plant response rating, Wheat",[7]; [16],90
same,Surinam Grass plant response rating,[8]; [17],70
same,Surinam Grass plant response rating,"[8]; 16 g ai/ha, postemergence, 0-100 scale",85
same,"Plant response rating, Surinam Grass","[8]; Postemergence, 31 g ai/ha, scale 0 to 100",100
same,"Plant response rating, Surinam Grass","[8]; Postemergence, 62 g ai/ha, scale 0 to 100, 0 no effect, 100 complete control",100
same,"Plant response rating, Surinam Grass","[8]; Preemergence, 31 g ai/ha, scale 0 to 100 (0 no effect, 100 complete control)",0
same,"Plant response rating, Surinam Grass","[8]; Preemergence, 62 g ai/ha, 0 to 100 scale, 0 no effect, 100 complete control",55
same,Surinam Grass plant response rating,"[8]; Preemergence, 8 g ai/ha, scale 0 to 100",0
same,Surinam Grass plant response rating,"[8]; Preemergence, 16 g ai/ha, scale 0 to 100",0
same,Canarygrass plant response rating,[9]; [17],50
same,"Plant response rating, Canarygrass",[9]; 16 g ai/ha,80
same,"Plant response rating, Canarygrass",[9]; 31 g ai/ha,95
same,Chickweed plant response rating,[10]; [17],0
same,"Plant response rating, Chickweed","[10]; 16 g ai/ha, scale 0 to 100",0
same,"Plant response rating, Chickweed","[10]; 31 g ai/ha, scale 0 to 100",0
same,"Plant response rating, Chickweed",[10]; [18],0
same,Windgrass plant response rating,[11]; 8 g ai/ha,95
same,Windgrass plant response rating,[11]; 16 g ai/ha,100
same,"Plant response rating, Windgrass","[11]; 31 g ai/ha, scale 0 to 100",100
same,"Plant response rating, Windgrass",[11]; [18],100
same,Barley plant response rating,[12]; [17],35
same,"Plant response rating, Barley",[12]; 16 g ai/ha,85
same,"Plant response rating, Barley",[12]; 31 g ai/ha,95
